Data: patent US20130296370A1, “COMPOSITION COMPRISING A PHOTOACTIVATABLE LARVICIDE” (UNIVERSITA DEGLI STUDI DI PADOVA, priority 2010, published 2013)

Key:
[1] = Photostability of C14 porphyrin in aqueous medium; type: physicochemical; conditions: 2.5 μM in PBS; visible light 20 mW/cm^2 for up to 60 minutes
Protocol: The photostability of the C14 porphyrin was determined in phosphate-buffered saline (PBS) upon illumination of a 2.5 μM porphyrin solution (initial absorbance around 0.5 at 424 nm) with white light (400-800 nm), which was isolated from the emission of a quartz-halogen lamp equipped with broad band filters to eliminate UV and infrared radiation. The light source was supplied by Teclas (Lugano, Switzerland), and operated at a fluence rate of 20 mW/cm^2. During irradiation the porphyrin solution was kept in agitation on a magnetic stirrer at room temperature. The concentration of the porphyrin in the aqueous solution was monitored spectrophotometrically at different irradiation times up to 60 min, and the photostability was expressed as the percent residual absorbance referred to the absorbance measured before irradiation.
The stability of C14 to the effect of full spectrum visible light was studied for a 2.5 μM porphyrin solution in PBS. The exposure of the porphyrin to visible light at a fluence rate of 20 mW/cm^2 for up to 60 minutes caused a decrease in the overall absorbance of less than 10%, which involved the whole set of bands in the blue, green and red spectral region. […]

[2] = Singlet oxygen quantum yield (DMA chemical quenching); type: physicochemical; conditions: DMA quenching in DMF; 400-800 nm, 100 mW/cm^2
Protocol: The potential of the C14 porphyrin as a photosensitising agent was assessed on the basis of the quantum yield (φΔ) of singlet oxygen (^1O2) generation by the photoexcited triplet state of the porphyrin, namely the number of ^1O2 molecules generated per number of absorbed light photons. In the present study φΔ was measured by following the decrease in the fluorescence emission of 9,10-dimethyl-anthracene (DMA) upon its photosensitised conversion into the corresponding non-fluorescent 9,10-endoperoxide. […] In a typical experiment, a DMA solution (1.5 ml, initial absorbance around 1 at 380 nm) and porphyrin solution (1.5 ml, initial absorbance around 0.4 at 420 nm) in N,N-dimethyl-formamide (DMF) were placed in a quartz cuvette with a 1 cm optical path and irradiated with 400-800 nm light wavelengths (Teclas lamp, 100 mW cm-2) at 20° C.±2° C. under gentle magnetic stirring for different periods of time up to 20 min. The DMA fluorescence emission was recorded in the 380-550 nm wavelength range with excitation at 360 nm. The first-order rate constant of the photoprocess was obtained by plotting In F0/F as a function of the irradiation time t, where F0 and F represent the fluorescence intensity at time 0 and time t, respectively. The slope of the linear plot thus obtained allowed the rate constant of the photoprocess to be calculated. […]

A. aegypti larvae = experiment: Larvicidal efficacy of C14 porphyrin-loaded PFP; type: in vivo; conditions: 3 hours irradiation
Protocol: Food particles (70 mg) were added at the time of introduction of the larvae (n=50, see methods for details). Arithmetic means of percent dead, dying and living larvae after 3 hours irradiation (intensity 1.0-4.0 mW/cm^2). Error bars represent standard deviations, (n=3 replicates of 50 larvae each).
Trays containing 5 μM C14 porphyrin solution and 70 mg PFP (wherein PFP means powdered food pellet (PFP) with final particle diameter of 5-500 μm diameter obtained by crushing a standard food pellet for laboratory rodents, namely 4RF18 GLP (Mucedola Srl, Italy) using an electric blender and then sieving at mesh diameter 500 μm) were incubated at 28±2° C. for 5 days in the dark. The solution was then filtered using Whatman qualitative filter papers (Whatman International Ltd., UK). The eluted C14 solution was conserved, and the incubated PFP retained on the filter paper was washed with 10 ml distilled water before further use. Experimental groups were designed as follows: 1) filtered, C14-incubated PFP in spring water (group A); 2) C14 solution eluate, added with 70 mg fresh PFP (group B); 3) 5 μM C14 solution incubated without PFP for 5 days in the dark, added with 70 mg fresh PFP (group C); 4) freshly prepared 5 μM C14 solution, added with 70 mg PFP (group D); 5) spring water added with 70 mg fresh PFP (control group). Fifty larvae, fasted for 24 hours, were added to each tray and incubated in the dark for 12 hours. The treated or untreated PFP was added at the time of introduction of the larvae, in all the experimental groups. The trays were then exposed to a light intensity of 1.0-4.0 mW/cm^2 and dead, dying and living larvae were counted 1 to 3 hours after the beginning of the irradiation.

[3] = group B: C14 solution eluate with 70 mg fresh PFP

For CCCCCCCCCCCCCC[n+]1ccc(-c2c3nc(c(-c4cc[n+](C)cc4)c4ccc([nH]4)c(-c4cc[n+](C)cc4)c4nc(c(-c5cc[n+](C)cc5)c5ccc2[nH]5)C=C4)C=C3)cc1.Cc1ccc(S(=O)(=O)[O-])cc1.Cc1ccc(S(=O)(=O)[O-])cc1.Cc1ccc(S(=O)(=O)[O-])cc1.Cc1ccc(S(=O)(=O)[O-])cc1 [C14, meso-tri(N-methyl-pyridyl), mono(N-tetradecyl-pyridyl)porphine], the “decrease in the overall absorbance” value [1] was “less than 10%”, the “quantum yield of ^1O2 photogeneration” value [2] was 0.46 and the dying larvae (A. aegypti larvae; [3]) was 49.8%. The mortality (A. aegypti larvae; [3]) was 38.4%, the mortality (A. aegypti larvae; group C: 5 μM C14 solution incubated 5 days in the dark without PFP, fresh PFP added) was 78.2% and the mortality (A. aegypti larvae; group D: freshly prepared 5 μM C14 solution with 70 mg PFP) was 87.1%.
